From ChEMBL document CHEMBL1201862, “PubChem BioAssay data set” (2004)
Active and inactive are the calls of the source.

What was measured:
[1] = target: T1, Rac GTPase-activating protein 1 (Homo sapiens, UniProt Q9H0H5); assay: MgcRacGAP GTPase-activating activity inhibitors, confirmation, biochemical, ADP Hunter fluorescence, primary and confirmatory (AID 624330); type: functional
T1 sequence (Q9H0H5 whole entry): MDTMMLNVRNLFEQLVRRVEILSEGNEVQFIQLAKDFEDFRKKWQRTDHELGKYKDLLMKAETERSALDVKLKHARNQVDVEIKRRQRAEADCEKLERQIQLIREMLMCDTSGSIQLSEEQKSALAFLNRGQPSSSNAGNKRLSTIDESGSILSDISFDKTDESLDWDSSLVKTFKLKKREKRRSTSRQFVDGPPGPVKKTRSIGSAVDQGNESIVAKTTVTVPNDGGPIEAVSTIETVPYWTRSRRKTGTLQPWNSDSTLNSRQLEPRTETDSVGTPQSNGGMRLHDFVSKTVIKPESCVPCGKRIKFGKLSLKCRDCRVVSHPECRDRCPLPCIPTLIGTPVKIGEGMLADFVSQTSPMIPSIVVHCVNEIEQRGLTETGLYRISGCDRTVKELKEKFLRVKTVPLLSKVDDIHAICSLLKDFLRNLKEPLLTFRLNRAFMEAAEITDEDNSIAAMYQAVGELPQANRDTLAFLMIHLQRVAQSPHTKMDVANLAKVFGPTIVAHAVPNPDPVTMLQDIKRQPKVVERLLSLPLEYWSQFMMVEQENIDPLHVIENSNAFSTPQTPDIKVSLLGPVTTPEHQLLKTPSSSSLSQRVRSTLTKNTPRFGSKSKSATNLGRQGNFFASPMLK

[2] = target: Photoreceptor-specific nuclear receptor (Homo sapiens, UniProt Q9Y5X4); type: functional, cell-based;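 note: CHO-S cells with Gal4-NCOR and VP16-NR2E3 two-hybrid luciferase reporter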
[3] = inhibitors of intracellular T. cruzi replication, confirmation, NIH3T3 host cells, beta-gal luminescence (AID 2044); type: functional, cell-based;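 note: intracellular parasites grown in NIH/3T3 mouse fibroblasts as host cells; luminescent beta-galactosidase reporter signal from transgenic T. cruzi replicating inside host cells; inhibitors lower the luminescence signal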
[4] = C. albicans growth with fluconazole, confirmation, fluorescence, retest (AID 2467); type: functional, cell-based
[5] = test system: Streptococcus sp. 'group A'; assay: growth inhibition of control SK(-) GAS strain, dose response, counter-screen for streptokinase expression inhibitor project, luminescence, kanamycin, BacTiterGlo, confirmation (AID 1900); type: functional, organism-based
[6] = cytotoxicity toward NIH3T3 fibroblasts, dose response, counter-screen, cell-based, ATP luminescence, mouse fibroblasts (AID 2010); type: functional;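 note: cells exposed to compound for about 90 hours before reading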
Streptokinase A = target: T2, Streptokinase A (Streptococcus pyogenes serotype M1, UniProt P10520); assay: S. pyogenes streptokinase expression inhibitors, potency, dose response, plasminogen activation absorbance, OD405 (AID 1914); type: functional, Streptococcus pyogenes M1 GAS;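 note: secreted streptokinase activity via plasminogen activation per viability signal from cell pellet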
T2 sequence (P10520 whole entry): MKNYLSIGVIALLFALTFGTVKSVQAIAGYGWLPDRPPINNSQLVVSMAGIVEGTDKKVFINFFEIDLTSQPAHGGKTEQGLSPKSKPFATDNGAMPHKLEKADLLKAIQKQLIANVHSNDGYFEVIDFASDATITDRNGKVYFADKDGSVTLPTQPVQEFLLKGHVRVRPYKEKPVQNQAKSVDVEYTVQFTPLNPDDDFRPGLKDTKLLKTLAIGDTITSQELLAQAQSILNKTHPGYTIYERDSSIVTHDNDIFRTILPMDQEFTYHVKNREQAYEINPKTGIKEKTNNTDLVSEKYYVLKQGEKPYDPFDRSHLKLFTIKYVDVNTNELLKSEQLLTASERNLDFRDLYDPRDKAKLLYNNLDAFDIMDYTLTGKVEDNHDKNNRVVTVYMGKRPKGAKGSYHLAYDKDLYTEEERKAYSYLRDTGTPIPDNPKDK

Leucine aminopeptidase = target: T3, Leucine aminopeptidase (Plasmodium falciparum 3D7, UniProt Q8IL11); assay: P. falciparum M17LAP inhibitors, primary screen, biochemical, fluorogenic H-Leu-NHMec substrate, 1536-well (AID 1619); type: functional
T3 sequence (Q8IL11 whole entry): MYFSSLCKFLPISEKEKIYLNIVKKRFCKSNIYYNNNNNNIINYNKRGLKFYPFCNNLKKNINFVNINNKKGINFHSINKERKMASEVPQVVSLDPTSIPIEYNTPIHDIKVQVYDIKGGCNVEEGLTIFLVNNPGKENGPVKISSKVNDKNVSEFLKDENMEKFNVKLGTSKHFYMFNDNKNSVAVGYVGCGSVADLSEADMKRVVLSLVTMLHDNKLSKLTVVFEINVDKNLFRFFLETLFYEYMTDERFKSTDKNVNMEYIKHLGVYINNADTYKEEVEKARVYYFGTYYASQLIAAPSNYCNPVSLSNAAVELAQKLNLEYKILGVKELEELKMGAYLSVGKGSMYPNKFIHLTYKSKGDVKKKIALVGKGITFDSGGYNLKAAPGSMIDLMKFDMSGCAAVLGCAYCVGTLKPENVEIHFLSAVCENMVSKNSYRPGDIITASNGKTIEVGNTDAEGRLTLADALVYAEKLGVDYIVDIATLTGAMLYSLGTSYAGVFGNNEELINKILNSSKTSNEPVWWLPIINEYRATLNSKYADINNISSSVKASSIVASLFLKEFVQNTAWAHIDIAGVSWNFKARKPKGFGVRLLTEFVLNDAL

Streptococcus = assay: Group A Streptococcus viability loss, dose response, counter-screen for streptokinase expression inhibitor project, luminescence, BacTiterGlo (AID 1915); type: functional, organism-based;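 note: potency for reduction of bacterial viability or growth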
[7] = NIH-3T3 fibroblast cytotoxicity, dose response, cytotoxicity control, cell-based, fluorescence, Alamar Blue, secondary assay (AID 2327); type: functional;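 note: NIH-3T3 mouse fibroblasts cultured with fluconazole at 8 µg/mL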
[8] = HeLa cell cytotoxicity, dose response, cytotoxicity control for MgcRacGAP inhibitor project (AID 624300); type: functional
Nonstructural protein 1 = Nonstructural protein 1 (Influenza A virus, UniProt Q194T2); type: functional, Influenza A virus (A/California/07/2009(H1N1))
Melanocortin receptor 4 = Melanocortin receptor 4 (Homo sapiens, UniProt P32245); assay: MC4R antagonist potency on cAMP, dose response, cell-based, TR-FRET, biased antagonists (AID 602298); type: functional;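 note: antagonist potency against agonist-stimulated cAMP production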
[9] = nonselective inhibitors of cellular cAMP signaling, dose response, counter-screen for MC4R biased antagonist project, cell-based, TR-FRET cAMP detection (AID 602305); type: functional;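 note: U2OS cells stimulated with forskolin near its EC80 as the cAMP inducer; potency is for inhibition of forskolin-stimulated cAMP signaling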
[10] = target: DNA repair and recombination protein RAD54-like (Homo sapiens, UniProt Q92698); assay: inhibitors of human RAD54 branch migration, confirmation, biochemical, fluorescence, cherry-picked samples, dose series (AID 651657); type: functional
[11] = HEp-2 cell cytotoxicity, dose response, cytotoxicity control for RSV inhibitor project, HTS (AID 2410); type: functional; conditions: human respiratory syncytial virus
Prothrombin = Prothrombin (Bos taurus, UniProt P00735); assay: thrombin inhibition, dose response, biochemical, fluorescence polarization, uHTS hits (AID 602369); type: functional
[12] = target: 26S proteasome non-ATPase regulatory subunit 14 (Homo sapiens, UniProt O00487); assay: inhibition of proteasome subunit RPN11 – biochemical, fluorescence polarization, uHTS hits, confirmation (AID 602368); type: functional
[13] = target: 72 kDa type IV collagenase (Homo sapiens, UniProt P08253); assay: Dose Response validation of uHTS RPN11 inhibitor hits using a MMP-2 Fluorescence assay.; type: functional
Chain of 72 kDa type IV collagenase (P08253 whole entry): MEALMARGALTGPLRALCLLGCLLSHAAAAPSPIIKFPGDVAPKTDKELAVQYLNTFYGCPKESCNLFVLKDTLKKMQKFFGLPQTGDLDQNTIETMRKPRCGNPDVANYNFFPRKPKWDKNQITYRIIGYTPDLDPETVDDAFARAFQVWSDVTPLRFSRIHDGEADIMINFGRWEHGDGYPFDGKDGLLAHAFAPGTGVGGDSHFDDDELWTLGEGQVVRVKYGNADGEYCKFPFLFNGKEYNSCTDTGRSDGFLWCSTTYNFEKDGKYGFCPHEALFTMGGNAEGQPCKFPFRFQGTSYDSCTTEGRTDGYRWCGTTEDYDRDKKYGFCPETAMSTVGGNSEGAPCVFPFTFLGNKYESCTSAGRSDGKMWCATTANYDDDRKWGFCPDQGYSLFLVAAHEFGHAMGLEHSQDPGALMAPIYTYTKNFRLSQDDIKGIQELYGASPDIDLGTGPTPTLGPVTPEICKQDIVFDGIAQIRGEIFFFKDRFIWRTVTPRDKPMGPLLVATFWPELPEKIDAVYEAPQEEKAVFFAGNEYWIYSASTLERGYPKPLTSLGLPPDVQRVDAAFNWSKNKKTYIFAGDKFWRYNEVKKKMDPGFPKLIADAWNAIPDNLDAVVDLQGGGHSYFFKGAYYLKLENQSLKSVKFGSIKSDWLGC

Chain of Melanocortin receptor 4 (P32245 whole entry): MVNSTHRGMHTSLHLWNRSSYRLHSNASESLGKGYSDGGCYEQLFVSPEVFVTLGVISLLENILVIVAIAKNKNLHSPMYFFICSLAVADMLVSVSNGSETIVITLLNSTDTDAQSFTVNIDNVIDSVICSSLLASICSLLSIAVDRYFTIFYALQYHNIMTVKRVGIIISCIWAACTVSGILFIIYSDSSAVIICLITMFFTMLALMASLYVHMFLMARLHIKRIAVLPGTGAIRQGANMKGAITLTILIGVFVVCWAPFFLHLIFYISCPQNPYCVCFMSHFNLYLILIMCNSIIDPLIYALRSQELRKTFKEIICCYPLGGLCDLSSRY
Chain of 26S proteasome non-ATPase regulatory subunit 14 (O00487 whole entry): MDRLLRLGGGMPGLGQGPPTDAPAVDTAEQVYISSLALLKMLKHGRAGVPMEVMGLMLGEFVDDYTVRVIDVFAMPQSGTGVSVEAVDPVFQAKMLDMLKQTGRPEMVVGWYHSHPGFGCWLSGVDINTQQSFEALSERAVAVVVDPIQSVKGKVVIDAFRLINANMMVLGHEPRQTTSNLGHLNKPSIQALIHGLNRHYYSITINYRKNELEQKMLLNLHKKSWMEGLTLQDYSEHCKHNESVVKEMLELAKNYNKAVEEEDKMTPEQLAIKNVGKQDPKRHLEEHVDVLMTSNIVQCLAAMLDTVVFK
Chain of DNA repair and recombination protein RAD54-like (Q92698 whole entry): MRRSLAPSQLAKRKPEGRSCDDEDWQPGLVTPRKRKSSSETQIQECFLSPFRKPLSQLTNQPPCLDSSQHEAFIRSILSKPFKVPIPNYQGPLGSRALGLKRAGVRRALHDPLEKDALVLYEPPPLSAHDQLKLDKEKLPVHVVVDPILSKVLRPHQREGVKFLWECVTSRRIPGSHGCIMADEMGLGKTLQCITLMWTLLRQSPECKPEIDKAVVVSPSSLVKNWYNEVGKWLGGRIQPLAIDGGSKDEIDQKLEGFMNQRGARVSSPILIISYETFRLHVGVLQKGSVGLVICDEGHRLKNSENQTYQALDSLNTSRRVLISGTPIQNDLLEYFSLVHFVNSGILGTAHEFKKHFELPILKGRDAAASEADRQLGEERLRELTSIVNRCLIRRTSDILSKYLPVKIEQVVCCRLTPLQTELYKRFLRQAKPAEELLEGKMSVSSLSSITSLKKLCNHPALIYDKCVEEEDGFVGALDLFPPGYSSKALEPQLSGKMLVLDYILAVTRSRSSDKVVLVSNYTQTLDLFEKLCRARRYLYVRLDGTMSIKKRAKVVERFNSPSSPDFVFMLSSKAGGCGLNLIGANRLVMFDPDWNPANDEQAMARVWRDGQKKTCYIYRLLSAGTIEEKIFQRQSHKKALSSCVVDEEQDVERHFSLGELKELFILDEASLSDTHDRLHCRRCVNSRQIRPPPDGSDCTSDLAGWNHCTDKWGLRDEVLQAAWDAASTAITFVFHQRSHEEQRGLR
Chain of Nonstructural protein 1 (Q194T2 whole entry): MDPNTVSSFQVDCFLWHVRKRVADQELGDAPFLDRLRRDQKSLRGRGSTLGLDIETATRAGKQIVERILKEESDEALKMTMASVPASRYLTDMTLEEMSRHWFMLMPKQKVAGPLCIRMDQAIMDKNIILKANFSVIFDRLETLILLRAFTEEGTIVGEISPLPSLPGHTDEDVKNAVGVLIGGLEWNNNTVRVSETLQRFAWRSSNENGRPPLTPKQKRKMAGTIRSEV
Chain of Photoreceptor-specific nuclear receptor (Q9Y5X4 whole entry, the tested form may be a part): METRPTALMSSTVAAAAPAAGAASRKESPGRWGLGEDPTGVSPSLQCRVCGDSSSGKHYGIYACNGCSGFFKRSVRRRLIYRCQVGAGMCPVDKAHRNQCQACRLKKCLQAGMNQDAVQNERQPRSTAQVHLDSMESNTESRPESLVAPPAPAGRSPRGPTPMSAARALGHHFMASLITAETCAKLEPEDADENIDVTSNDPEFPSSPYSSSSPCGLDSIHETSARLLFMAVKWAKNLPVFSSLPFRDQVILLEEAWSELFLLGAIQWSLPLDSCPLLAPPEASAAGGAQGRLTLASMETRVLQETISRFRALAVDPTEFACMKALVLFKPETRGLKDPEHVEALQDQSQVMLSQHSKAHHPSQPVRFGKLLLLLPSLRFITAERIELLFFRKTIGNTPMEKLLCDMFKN

CN(C)c1ccc(/C=C/c2ccc3ccccc3[n+]2C)cc1
IC50 [1]: 46.8 µM (active)
IC50 [2]: 19.2 µM (inactive)
EC50 [3]: < 0.1 µM (active)
EC50 [4]: 0.035 µM (active)
EC50 (cells): < 0.004 µM (active)
EC50 [5]: 6.7 µM (active)
EC50 [6]: 18.5 µM (active)
EC50 (Streptokinase A): > 150 µM (not active)
IC50 (Leucine aminopeptidase): 88.4 µM (active)
EC50 (Streptococcus): 11.5 µM (active)
EC50 [7]: > 150 µM (inactive)
CC50 [8]: 28.9 µM (active)
IC50 (Nonstructural protein 1): 14.3 µM (active)

O=C(/C=C/c1cccs1)N1CCC2(CC1)Oc1ccc(Cl)cc1C(=O)C21CC(c2cccnc2)=NO1 (configuration not stated)
IC50 (Melanocortin receptor 4): > 64.6 µM (inactive)
IC50 [9]: > 64.6 µM (inactive)

CCOc1ccc(Nc2nc(Cl)nc(N3CCN(c4ccc(OC)cc4)CC3)n2)cc1
IC50 (Melanocortin receptor 4): > 64.6 µM (inactive)
IC50 [9]: > 64.6 µM (inactive)

Cc1ccc2nc3c(c(N)c2c1)CCN3c1ccccc1
AC50 [10]: 42.5 µM (active)

CCc1ccc(/C=C2\SC(=S)N(CCC(=O)N3CCN(C)CC3)C2=O)cc1
CC50 [11]: 18.6 µM (active)
IC50 (Prothrombin): 82.7 µM (active)
IC50 [12]: 51.6 µM (active)
IC50 [13]: > 100 µM (inactive)
